Results published in ChEMBL document CHEMBL4145551, “Mitochondria-targeting indolizino[3,2-c]quinolines as novel class of photosensitizers for photodynamic anticancer activity” (Eur J Med Chem, 2018).
Activity calls are given as the source filed them. The calls are words filed in the database; no cut-off is given here.

What was measured:
[1] = Drug uptake in human HeLa cell nucleus at 10 uM after 1 hr by mitotracker red staining based confocal laser scanning microscopic method; type: ADME, subcellular
[2] = system: HeLa; assay: Photocytotoxicity against human HeLa cells assessed as reduction in cell viability preincubated for 1 hr followed blue LED light irradiation for 10 mins and measured after 24 hrs by MTT assay; type: functional, cell-based
[3] = Induction of singlet oxygen production assessed as photodegradation of DPBF by measuring quantum yield after irradiation with 356 nanometer light by UV-Visible spectroscopic analysis; type: functional
[4] = Drug uptake in human MCF7 cell mitochondria at 10 uM incubated for 1 to 2 hrs under 488 nanometer laser light irradiation by confocal microscopic method; type: ADME; settings: mcf7, 10 µM
[5] = system: DNA; assay: Induction of Escherichia coli pBR322 DNA cleavage irradiated with blue LED light after 30 mins by agarose gel electrophoresis method; type: nucleic-acid assay
[6] = system: MCF7; assay: Photocytotoxicity against human MCF7 cells assessed as induction of mitochondrial membrane potential depolarization at 10 uM preincubated for 1 hr followed by blue LED light irradiation for 5 mins by TMRE staining based confocal microscopic method; type: functional, cell-based
[7] = Dark toxicity in human HeLa cells assessed as morphological changes at 10 uM measured after 14 hrs by propidium iodide staining based fluorescence microscopic method; type: cell-based
[8] = system: HeLa; assay: Induction of ROS generation in human HeLa cells preincubated for 1 hr followed by blue LED light irradiation for 15 mins by DHE staining based HCS analysis; type: functional, cell-based
[9] = Drug uptake in human HeLa cell cytoplasm at 10 uM after 1 hr by mitotracker red staining based confocal laser scanning microscopic method; type: ADME, subcellular
[10] = system: A549; assay: Photocytotoxicity against human A549 cells assessed as reduction in cell viability preincubated for 1 hr followed blue LED light irradiation for 10 mins and measured after 24 hrs by MTT assay; type: functional, cell-based
[11] = system: DNA; assay: Induction of Escherichia coli pBR322 DNA cleavage at 20 uM irradiated with blue LED light after 30 mins in presence of hydroxyl radical scavenger mannitol by agarose gel electrophoresis method; type: nucleic-acid assay
[12] = system: A549; assay: Photocytotoxicity against human A549 cells assessed as reduction in cell viability preincubated for 1 hr followed blue LED light irradiation for 5 mins and measured after 24 hrs by MTT assay; type: functional, cell-based
[13] = Drug uptake in mouse NIH/3T3 cell mitochondria at 10 uM incubated for 1 to 2 hrs under 488 nanometer laser light irradiation by confocal microscopic method; type: ADME; settings: nih3t3, 10 µM
[14] = system: HeLa; assay: Photocytotoxicity against human HeLa cells assessed as cell shrinkage at 10 uM preincubated for 1 hr followed by blue LED light irradiation for 5 mins and measured after 13 hrs by propidium iodide staining based fluorescence microscopic method; type: functional
[15] = system: HeLa; assay: Photocytotoxicity against human HeLa cells assessed as plasma membrane blebbing up to 10 uM preincubated for 1 hr followed by blue LED light irradiation for 5 mins and measured after 13 hrs by Hoechst 33258 staining based fluorescence microscopic method; type: functional, cell-based
[16] = Drug uptake in human HeLa cell mitochondria at 10 uM incubated for 1 to 2 hrs under 488 nanometer laser light irradiation by confocal microscopic method; type: ADME
[17] = system: HeLa; assay: Photocytotoxicity against human HeLa cells assessed as DNA fragmentation up to 10 uM preincubated for 1 hr followed by blue LED light irradiation for 5 mins and measured after 13 hrs by Hoechst 33258 staining based fluorescence microscopic method; type: functional, cell-based
[18] = system: HeLa; assay: Photocytotoxicity against human HeLa cells assessed as induction of mitochondrial membrane potential depolarization at 10 uM preincubated for 1 hr followed by blue LED light irradiation for 5 mins by TMRE staining based confocal microscopic method; type: functional, cell-based
[19] = system: DNA; assay: Binding affinity to Escherichia coli pBR322 DNA assessed as increase in test compound fluorescence irradiated with blue LED light for 5 to 20 mins; type: nucleic-acid assay
[20] = system: HeLa; assay: Photocytotoxicity against human HeLa cells assessed as cytoplasmic shrinkage at 10 uM preincubated for 1 hr followed by 488 nanometer laser light irradiation and measured after 8 to 10 mins by confocal microscopic method; type: functional, cell-based
[21] = system: DNA; assay: Induction of Escherichia coli pBR322 DNA cleavage at 20 uM irradiated with blue LED light after 30 mins in presence of H2O2 scavenger KI by agarose gel electrophoresis method; type: nucleic-acid assay
[22] = system: HeLa; assay: Photocytotoxicity against human HeLa cells assessed as reduction in cell viability preincubated for 1 hr followed blue LED light irradiation for 5 mins and measured after 24 hrs by MTT assay; type: functional, cell-based
[23] = Dark toxicity in human A549 cells assessed as reduction in cell viability up to 10 uM measured after 24 hrs by MTT assay; type: cell-based; settings: a549, 24 h
[24] = system: Calf thymus DNA; assay: Binding affinity to calf thymus DNA assessed as red shift in emission maxima; type: nucleic-acid assay; settings: Bos taurus
[25] = system: HeLa; assay: Photocytotoxicity against human HeLa cells assessed as increase in cleaved caspase-3 protein expression preincubated for 1 hr followed by blue LED light irradiation for 10 mins and measured after 18 hrs by Western blot analysis; type: functional, cell-based
[26] = system: HeLa; assay: Photocytotoxicity against human HeLa cells assessed as increase in cleaved caspase-9 protein expression preincubated for 1 hr followed by blue LED light irradiation for 10 mins and measured after 18 hrs by Western blot analysis; type: functional, cell-based
[27] = system: HeLa; assay: Photocytotoxicity against human HeLa cells assessed as cell shrinkage at 20 uM preincubated for 1 hr followed by blue LED light irradiation for 10 mins and measured after 2.5 hrs by holotomographic method; type: functional, cell-based
[28] = system: HeLa; assay: Photocytotoxicity against human HeLa cells assessed as cell membrane blebbing at 10 uM preincubated for 1 hr followed by blue LED light irradiation for 5 mins by differential interference contrast imaging analysis; type: functional, cell-based
[29] = system: MCF7; assay: Photocytotoxicity against human MCF7 cells assessed as reduction in cell viability preincubated for 1 hr followed blue LED light irradiation for 10 mins and measured after 24 hrs by MTT assay; type: functional, cell-based
[30] = system: HeLa; assay: Photocytotoxicity against human HeLa cells assessed as membrane protrusion at 5 uM preincubated for 1 hr followed by blue LED light irradiation for 10 to 30 mins and measured after 2.5 hrs by holotomographic method; type: functional, cell-based
[31] = Drug uptake in human HeLa cell mitochondria at 10 uM after 1 hr by mitotracker red staining based confocal laser scanning microscopic method; type: ADME
[32] = system: HeLa; assay: Photocytotoxicity against human HeLa cells assessed as increase in cleaved PARP protein expression preincubated for 1 hr followed by blue LED light irradiation for 10 mins and measured after 18 hrs by Western blot analysis; type: functional, cell-based
[33] = system: HeLa; assay: Photocytotoxicity against human HeLa cells assessed as plasma membrane blebbing at 20 uM preincubated for 1 hr followed by blue LED light irradiation for 10 mins and measured after 2.5 hrs by holotomographic method; type: functional, cell-based
[34] = system: DNA; assay: Induction of Escherichia coli pBR322 DNA cleavage at 20 uM after 30 mins under dark condition by agarose gel electrophoresis method; type: nucleic-acid assay; settings: 0.5 h
[35] = system: Calf thymus DNA; assay: Binding affinity to calf thymus DNA assessed as red shift in absorption maxima; type: nucleic-acid assay; settings: Bos taurus
[36] = system: HeLa; assay: Photocytotoxicity against human HeLa cells assessed as chromatin condensation up to 10 uM preincubated for 1 hr followed by blue LED light irradiation for 5 mins and measured after 13 hrs by Hoechst 33258 staining based fluorescence microscopic method; type: functional, cell-based

Drug uptake [1]: Not Active
Drug uptake [4]: Active
Activity [5]: Dose-dependent effect
Drug uptake [9]: Active
Activity [11]: Active
Drug uptake [13]: Active
Drug uptake [16]: Active
Activity [19]: Active
Activity [21]: inactive
Activity [24]: 36 nm
Drug uptake [31]: Active
Activity [35]: 57 nm
Structure (SMILES): Cc1cccn2c1cc1c3ccccc3nc(-c3ccco3)c12
Activity [2]: Dose-dependent effect
IC50 ([2]; light or radiation study): 1120 nM
Activity [3]: 0.33
Activity [6]: Active
Activity [7]: Non-Toxic
Activity [8]: Dose-dependent effect
Activity [10]: Dose-dependent effect
IC50 ([10]; A549, light or radiation study): 2370 nM
Activity [12]: Dose-dependent effect
IC50 ([12]; A549, light or radiation study): 2960 nM
Activity [14]: Active
Activity [15]: Active
Activity [17]: Active
Activity [18]: Active
Activity [20]: Active
Activity [22]: Dose-dependent effect
IC50 ([22]; light or radiation study): 1760 nM
Activity [23]: Non-Toxic
Activity [25]: Dose-dependent effect
Activity [26]: Dose-dependent effect
Activity [27]: Active
Activity [28]: Active
Activity [29]: Dose-dependent effect
IC50 ([29]; MCF7, light or radiation study): 1670 nM
Activity [30]: Active
Activity [32]: Dose-dependent effect
Activity [33]: Active
Activity [34]: Non-Toxic
Activity [36]: Active
